According to ChEMBL document CHEMBL3797112, “Flavonoid profile and antileukemic activity of Coreopsis lanceolata flowers” (Bioorg Med Chem Lett, 2016):
Active and inactive are the calls of the source. The calls are words filed in the database; no cut-off is given here.

Legend:
[1] = test system: HL-60; assay: (§1) Antiproliferative activity against human HL60 cells assessed as cell survival at 25 uM incubated for 48 hrs by CCK8 assay; assay type: functional
[2] = Retention time of the compound by UPLC-ESI-MS method; assay type: physicochemical
[3] = as §1; assay type: functional; conditions: HL-60, 48 h, read-out: Survival
[4] = test system: HL-60; assay: Induction of apoptosis in human HL60 cells assessed as induction of morphological changes at 25 uM incubated for 48 hrs by Hoechst-33342 staining assay; assay type: functional, cell-based
[5] = test system: HL-60; assay: Induction of apoptosis in human HL60 cells at 25 uM incubated for 48 hrs by Giemsa staining assay; assay type: functional, cell-based

SMILES | Activity [1] | Retention_time [2] | viability at 25 µM [3] | Activity [4] | Activity [5]
COc1c(O[C@@H]2O[C@H](CO)[C@@H](O)[C@H](O)[C@H]2O)ccc2c1O/C(=C\c1ccc(O)c(O)c1)C2=O | inactive | 16.07 min |  |  | 
COc1c(O)ccc(C(=O)/C=C/c2ccc(O)c(O)c2)c1O | inactive | 30.97 min |  |  | 
COc1ccc(/C=C/C(=O)c2ccc(O)c(OC)c2O)cc1O |  | 41.24 min | 23.8% | Active | Active
O=C(/C=C/c1ccc(O)c(O)c1)c1ccc(O)c(O)c1O | inactive | 20.14 min |  |  | 
COc1c(O)ccc2c1O/C(=C\c1ccc(O)c(O)c1)C2=O | inactive | 25.04 min |  |  | 
CC(=O)O[C@H]1C(=O)[C@@]2(C)[C@H]([C@H](OC(=O)c3ccccc3)[C@]3(O)C[C@H](OC(=O)[C@H](O)[C@@H](NC(=O)c4ccccc4)c4ccccc4)C(C)=C1C3(C)C)[C@]1(OC(C)=O)CO[C@@H]1C[C@@H]2O [PACLITAXEL] |  |  | 18.9% |  | 
COc1c(O)ccc2c1O[C@H](c1ccc(O)c(O)c1)CC2=O | inactive | 18.52 min |  |  | 
